Converted amounts (≈) assume the structure as drawn.

For this experiment, the system named is Liver microsomes. The experiment can be described thus: Inhibition of lipid peroxidation in rat liver microsomes. The format is functional, Microsome.
VITAMIN E displayed an IC50 of 1.68 µg/mL.

With `COC1=C(c2ccccc2)C(=O)C2=C(C1=O)c1ccccc1CO2` [BETULINAN B], the 50% inhibitory concentration (IC50) is 2.88 µg/mL (≈ 9.05 µM). This IC50 lies about 1.7-fold higher than the previous one.

Compound `COC1=C(c2ccccc2)C(=O)C(OC)=C(c2ccccc2)C1=O` [BETULINAN A] yielded a 50% inhibitory concentration (IC50) of 0.46 µg/mL (≈ 1.44 µM).

What is called IC50 is the concentration at which inhibition is half-maximal. The low end stands for greater potency in that assay, the high end for weaker potency in that assay.
